Where two headings read alike, the source gives them in different places. Starred links: 1 amine or outer side, 2 acyl side, 3 side chain; linkers in the order of their positions; H or OH if unused. Positions of bridges follow the written chain, without caps; N, C: chain ends. Non-standard residues stand in square brackets, D forms with d. Residues, ends and D or L forms follow the SMILES beside them. Groups on a side chain read outwards from the residue. *: point of attachment. X3 = CCN1C(=CC=CC=CC2=[N+](CCCCCC(=O)*)c3ccc(S(=O)(=O)[O-])cc3C2(C)C)C(C)(C)c2cc(S(=O)(=O)O)ccc21; X1 = CCN1C(=CC=CC2=[N+](CCCCCC(=O)*)c3ccc(S(=O)(=O)O)cc3C2(C)C)C(C)(C)c2cc(S(=O)(=O)[O-])ccc21; X4 = CCN1C(=CC=CC2=[N+](CCCCCC(=O)*)c3ccc(S(=O)(=O)[O-])cc3C2(C)C)C(C)(C)c2cc(S(=O)(=O)O)ccc21; d(εLys) = N[C@H](CCCCN[*:1])C(=O)[*:2]; PEG5 = NCCOCCOCCOCCOCCOCCC(=O)O; Orn = NCCC[C@H](N)C(=O)O; Mpa = O=C(O)CCS
Key:
hOTR-GFP in HEK293 cells [1] = target: T1, hOTR-GFP in HEK293 cells (Homo sapiens, UniProt P30559); experiment: Live single-particle tracking (TIRFM, uPAINT) of hOTR
T1 sequence (P30559 1-389): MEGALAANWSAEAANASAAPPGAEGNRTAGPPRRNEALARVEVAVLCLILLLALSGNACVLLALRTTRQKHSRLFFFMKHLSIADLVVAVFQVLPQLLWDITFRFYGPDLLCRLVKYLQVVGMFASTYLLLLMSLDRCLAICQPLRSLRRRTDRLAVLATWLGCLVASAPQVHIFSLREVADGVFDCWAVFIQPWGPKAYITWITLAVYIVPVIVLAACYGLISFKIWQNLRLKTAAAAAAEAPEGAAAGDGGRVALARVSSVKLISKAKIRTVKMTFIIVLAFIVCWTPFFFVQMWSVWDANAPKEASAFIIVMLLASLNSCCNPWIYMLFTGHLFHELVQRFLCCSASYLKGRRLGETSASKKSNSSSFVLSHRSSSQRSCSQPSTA
Description: We first exposed hOTR‐GFP cells to 10 and 100 nM of tracer (11) during acquisition with a ZEISS Lattice SIM microscope (Movies S1 and S2). […] To further disentangle the dynamics of our tracer‐mediated OTR engagement and trafficking, we evaluated its applicability in single‐particle tracking (SPT) in living cells. We cultured HEK293 (parent cells) and HEK293 cells stably expressing hOTR‐GFP (HEK293‐hOTR‐GFP) and performed total internal reflection microscopy (TIRFM) SPT universal point accumulation imaging in nanoscale topography (uPAINT) following the addition of 1 nM of tracer (10). […] This concentration was selected to facilitate the detection and tracking of single molecules of the fluorescent agonist tracer following binding to hOTR at the plasma membrane by uPAINT. […] We first assessed the number of tracks (indicative of the number of single molecules detected/tracked). […] We quantified the mean squared displacement of each trajectory to calculate its apparent diffusion coefficient. The diffusion coefficient of each trajectory of the tracer bound to hOTR was plotted as a frequency distribution (Figure 7b2 ).
Live cell imaging. For 3D live cell imaging, attached and serum -starved HEK293-hOTR-GFP cells in 96-well
glass bottom plates were imaged on a ZEISS Lattice SIM Microscope using a 40x oil objective and SIM 2 post- […]

hOTR [2] = target: T2, hOTR (Homo sapiens, UniProt P30559); experiment: Radioligand displacement and saturation binding, membranes of HEK293 cells stably expressing hOTR, [3H]-OT; settings: [3H]-OT, mean ± SD, duplicates, at least three independent experiments
T2 construct: expressed in transfected cells
T2 sequence (P30559 1-389): T1 sequence (P30559 1-389)
Description: (§1) Membrane preparation for radioligand assays. HEK293 cells were used for stable expression of GFP-tagged
(§2) human OTR, V1aR, V1bR, and V2R isoforms and transient expression of murine OTR, V1aR, V1bR, and V2R
(§3) isoforms. Cell culture work was performed under sterile conditions with DMEM high glucose containing 10%
(§4) FBS, and 50 U/mL P/S. Cells were cultured in 10 cm diameter cell culture dishes at 37°C in a humidified
(§5) atmosphere with 5% CO2, and cells were passaged at 70-90% confluency.
(§6) medium of stable cell lines at 0.5 mg/mL to sustain selection pressure, and cells were harvested at 90% confluency
(§7) for membrane preparation. For transient expression of murine receptors, 60% confluent wild-type HEK293 cells
(§8) were transfected using the jetPRIME transfection reagent according to the manufacturer’s protocol and harvested
(§9) 48 h post-transfection. For membrane preparation, cells were washed with ice-cold PBS pH 7.4, scraped into fresh
(§10) PBS on ice, and centrifuged at 4°C and 178 g for 10 min. The pellet was resuspended in a TRIS buffer solution
ice-cold water bath sonicator. The obtained solution was centrifuged for 20 min at 54,192 g and 4°C. The obtained
pellet was resuspended in TRIS buffer without protease inhibitors, homogenized with an ultrasonicator, aliquoted,
and stored at -80°C until further use. A BCA assay was used to determine the protein concentration of the
Radioligand displacement and saturation experiments. Assay solutions consisting of competing ligand,
radioligand, and membrane preparation were incubated for 1 h at 37°C. Standard binding buffer solution (50 mM
TRIS, 5 mM MgCl2, 0.1% BSA, pH 7.4) was used to prepare all dilutions; the final assay volume was 200 µL.
concentrations were 8 μg/vial for hOTR, 5 μg/vial for hV1aR, and 3 μg/vial for hV1bR and hV2R, respectively , and
4 μg/vial for mOTR, 1.5 μg/vial for m V1aR, 3 μg/vial for mV 1bR, and 10 μg/vial for mV 2R. To assess non-specific
Specific binding was determined by
subtraction of the non-specific binding from the total binding. In radioligand displacement experiments, semi -
logarithmically spaced concentrations of respective test ligands were applied to determine K i values based on
assessed Kd values of radiotracers and by fitting the data to a three -parameter logistic Hill equation and applying
the Cheng and Prusoff approximation. 10 In case of human receptors from stable cell lines, Kd and Bmax values were
In case of murine receptors from transient
was performed using GraphPad Prism (version 9.5.1) . After incubation, membranes were filtered and washed on
a Skatron Cell Harvester using polyethyleneimine -coated glass fiber filters (type B, soaked in 0.1% aqueous
1 mM MgCl2, pH 7.4, 4°C). The soaked filter pieces were transferred into counter vials, and 2 mL of scintillation
cocktail (LSC Universalcocktail) was added to each vial. After 1 h incubation at 25°C on a shaker, radioligand
concentration was determined using a Tri -Carb liquid scintillation analyzer.
response curves were obtained from radioligand displacement experiments of membrane preparations of HEK293
Values were normalized to the percentage
of maximum binding (i.e., no competing ligand present). Specific binding was obtained from the subtraction of
non-specific binding from total binding. K i values were derived from one-site-fitted competition binding curves.

[3] = system: CREB phosphorylation via hOTR-GFP; experiment: In vitro phosphorylation assay (pCREB) in hOTR-GFP HEK293 cells; assay type: cell-based, human; settings: range 1 nM to 1 µM
hOTR-GFP in HEK293 cells [4] = target: T1, hOTR-GFP in HEK293 cells; experiment: hOTR-GFP internalization and tracer uptake, confocal microscopy after fixation/ICC; assay type: cell-based; parameters: expressed in transfected cells; settings: for hOTR-GFP internalization / Tracer retention after ICC protocols: 100 nM; for Tracer retention after ICC protocols: 1 h stimulation, formaldehyde fixation, PBS washing; for Tracer signal after prolonged stimulation: 24 h treatment, post-fixation ICC
Excerpt: To validate the application scope of our tracers for biological systems and post‐hoc imaging, we used HEK293 cells stably overexpressing human OTR or V1aR, tagged with a C‐terminal fused green fluorescent protein to visualize receptor trafficking (hOTR‐GFP or hV1aR‐GFP, respectively).
subsequently washed with PBS and processed for immunocytochemistry.
Immunocytochemistry and imaging. Unspecific protein binding was quenched with 5% normal donkey serum
(Jackson ImmunoResearch), 2% bovine serum albumin (Sigma-Aldrich, Merck), and 0.2% Triton X-100 (Sigma-
Aldrich, Merck) in PBS. Next, cells were exposed to primary antibody cocktails containing FITC-conjugated goat-
anti-GF (1:2000, Sigma-Aldrich, Merck) and mouse pCREB (1:300, Sigma-Aldrich, Merck) in PBS with 2%
normal donkey serum, 0.1% BSA, and 0.2% Triton X-100 overnight at 4°C. After three PBS washing steps, wells
were incubated with secondary antibody cocktails (1:400, Jackson Immuno Research) containing suitable
were mounted with glycerol gelatin (Sigma-Aldrich, Merck) and imaged on a Zeiss LSM 780/880 confocal
microscope (Zeiss). Images were analyzed and equally contrasted for visualization with ZEN Pro (Zeiss) and

[5] = system: parent HEK293 cells lacking hOTR; settings: 100 nM
hOTR [6] = target: T2, hOTR; parameters: method as in PMID 8126695; settings: cited from earlier work
[7] = target: hV1aR-GFP in HEK293 cells (Homo sapiens, UniProt P37288); experiment: Tracer signal and internalization in hV1aR-GFP HEK293 cells post ICC; settings: 100 nM
hV1aR-GFP in HEK293 cells, sequence (P37288 whole entry): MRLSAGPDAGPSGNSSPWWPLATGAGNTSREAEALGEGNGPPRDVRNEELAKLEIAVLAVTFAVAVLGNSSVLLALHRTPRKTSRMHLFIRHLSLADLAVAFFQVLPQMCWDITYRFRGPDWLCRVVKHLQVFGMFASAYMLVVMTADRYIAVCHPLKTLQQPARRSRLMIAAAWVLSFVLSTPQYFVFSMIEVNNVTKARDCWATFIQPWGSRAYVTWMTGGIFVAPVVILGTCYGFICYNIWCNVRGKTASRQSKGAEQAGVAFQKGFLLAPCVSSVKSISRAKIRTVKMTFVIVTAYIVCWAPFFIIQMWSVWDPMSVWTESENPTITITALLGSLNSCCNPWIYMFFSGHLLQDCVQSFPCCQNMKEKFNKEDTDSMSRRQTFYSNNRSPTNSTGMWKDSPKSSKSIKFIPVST

[8] = system: rat embryonic hippocampal neurons; experiment: Tracer uptake in primary rat hippocampal neurons; assay type: cell-based; settings: 100 nM, 1 h; E17.5 neurons cultured 14 days
Description: Finally, we evaluated whether tracer (11) is applicable in primary cells endogenously expressing OTR.
Primary UtSMC and hippocampal neuronal cultures.
Muscle Cell Basal Medium 2 (PromoCell), including supplements (PromoCell) and P/S (Gibco) at 37°C and 5%
CO2. Cells were trypsinized with 0.1% Trypsin/EDTA (Gibco) and plated on glass -bottom 96-well plates (CellVis)
at a density of 10,000 cells/well in full growth medium. The next day, cells were stimulated with tracer ( 11), OTA ,
dissociated with flame -polishe d Pasteur pipettes in Hank’s balanced salt solution (HBSS, Gibco). Tissue pieces
were subsequently enzymatically dissociated with 0.1% Trypsin/EDTA (Gibco) in Neurobasal A (NBA, Gibco)
containing 1,000U/mL DNase (Sigma) for 5 min at 37°C. Cells were triturated with flamed Pasteur pipettes,
filtered through a 40 µm nylon mesh ( Thermo Fisher Scientific ), centrifuged at 200 g for 5 min, and washed up to
three times in NBA containing P/S (Gibco), GlutaMax (Gibco) , and B27 supplement (Gibco). Cells were plated at
20,000 cells/well on PDL -coated (Sigma) glass -bottom black 96 -well microscopy plates (Cellvis) and grown at
37°C with 5% CO 2. Half of the medium was replaced every 3 -4 days. After 13 -14 days in vitro , neuronal cultures
were exposed to 100 nM tracer ( 11) for one hour, with or without 30-min pretreatment with 10 µM of the peptide
antagonist OTA. […]

hV2R = target: T3, hV2R (Homo sapiens, UniProt P30518); experiment: Radioligand displacement and saturation binding, membranes of HEK293 cells stably expressing hV2R, [3H]-VP
T3 construct: expressed in transfected cells; membrane preparation
T3 sequence (P30518 whole entry): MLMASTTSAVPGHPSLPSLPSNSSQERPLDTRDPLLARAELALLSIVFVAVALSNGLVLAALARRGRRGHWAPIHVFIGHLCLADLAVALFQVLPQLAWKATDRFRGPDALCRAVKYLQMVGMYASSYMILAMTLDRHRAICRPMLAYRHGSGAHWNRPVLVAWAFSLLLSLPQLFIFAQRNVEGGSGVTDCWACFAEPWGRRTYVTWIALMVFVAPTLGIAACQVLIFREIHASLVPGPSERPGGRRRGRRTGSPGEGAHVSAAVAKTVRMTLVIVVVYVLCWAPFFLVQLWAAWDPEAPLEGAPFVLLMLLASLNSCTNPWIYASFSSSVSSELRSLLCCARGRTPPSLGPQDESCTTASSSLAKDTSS
Description: as §1, §2, §3, §4, §5, §6, §7, §8, §9, §10
(§11) ice-cold water bath sonicator. The obtained solution was centrifuged for 20 min at 54,192 g and 4°C. The obtained […]
Specific binding was determined by […]
(§12) assessed Kd values of radiotracers and by fitting the data to a three -parameter logistic Hill equation and applying […]
(§13) concentration was determined using a Tri -Carb liquid scintillation analyzer. […]

hV1bR = target: T4, hV1bR (Homo sapiens, UniProt P47901); experiment: Radioligand displacement and saturation binding, membranes of HEK293 cells stably expressing hV1bR, [3H]-VP
T4 construct: expressed in transfected cells; membrane preparation
T4 sequence (P47901 1-424): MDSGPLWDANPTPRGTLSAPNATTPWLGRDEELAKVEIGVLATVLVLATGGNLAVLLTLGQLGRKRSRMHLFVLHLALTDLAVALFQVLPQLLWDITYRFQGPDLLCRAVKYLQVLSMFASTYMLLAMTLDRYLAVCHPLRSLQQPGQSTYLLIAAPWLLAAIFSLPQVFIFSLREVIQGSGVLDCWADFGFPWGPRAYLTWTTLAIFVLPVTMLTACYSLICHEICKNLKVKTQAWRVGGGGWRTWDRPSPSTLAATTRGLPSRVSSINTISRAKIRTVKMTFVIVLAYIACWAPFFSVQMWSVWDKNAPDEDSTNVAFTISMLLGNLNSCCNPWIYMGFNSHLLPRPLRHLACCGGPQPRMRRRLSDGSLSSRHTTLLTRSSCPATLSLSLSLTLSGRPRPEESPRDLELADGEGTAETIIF
Description: as §1, §2, §3, §4, §5, §6, §7, §8, §9, §10, §11
Specific binding was determined by […]
as §12, §13

hV1aR = target: T5, hV1aR (Homo sapiens, UniProt P37288); experiment: Radioligand displacement and saturation binding, membranes of HEK293 cells stably expressing hV1aR, [3H]-VP
T5 construct: expressed in transfected cells
T5 sequence (P37288 whole entry): as the sequence (P37288 whole entry) above
Description: as §1, §2, §3, §4, §5, §6, §7, §8, §9, §10, §11
Specific binding was determined by […]
as §12, §13

## CC[C@H](C)[C@@H]1NC(=O)[C@H](Cc2ccc(O)cc2)NC(=O)CCSSC[C@@H](C(=O)N2CCC[C@H]2C(=O)N[C@@H](CCCNC(=O)[C@@H](CC(=O)O)NC(=O)CCOCCOCCOCCOCCOCCNC(=O)CCCCC[N+]2=C(C=CC=CC=C3N(CC)c4ccc(S(=O)(=O)O)cc4C3(C)C)C(C)(C)c3cc(S(=O)(=O)[O-])ccc32)C(=O)NCC(N)=O)NC(=O)[C@H](CC(N)=O)NC(=O)[C@H](CCC(N)=O)NC1=O [Compound 10, d(Orn)^8OT‐[d‐PEG5‐Cy5s]^8] ([Mpa]YIQNCP[Orn]([dD-PEG5-X3])G-NH2; disulfide 1-6)
hOTR-GFP in HEK293 cells [1]; 1 nM tracer, HEK293-hOTR-GFP, 50 Hz, tracer bound to hOTR, mean ± SEM
  Average (apparent) diffusion coefficient: 0.206 ± 0.017 µm^2 s^−1
hOTR-GFP in HEK293 cells [1]; HEK293-hOTR-GFP cells, N=9 cells, 3 independent experiments
  Average number of tracks (per cell): 4884 ± 1718

## CC[C@H](C)[C@@H]1NC(=O)[C@H](Cc2ccc(O)cc2)NC(=O)CCSSC[C@@H](C(=O)N2CCC[C@H]2C(=O)N[C@@H](CCCNC(=O)CCOCCOCCOCCOCCOCCNC(=O)CCCCC[N+]2=C(C=CC=C3N(CC)c4ccc(S(=O)(=O)[O-])cc4C3(C)C)C(C)(C)c3cc(S(=O)(=O)O)ccc32)C(=O)NCC(N)=O)NC(=O)[C@H](CC(N)=O)NC(=O)[C@H](CCC(N)=O)NC1=O [Compound 4, d(Orn)^8OT‐[PEG5‐Cy3s]^8] ([Mpa]YIQNCP[Orn]([PEG5-X1])G-NH2; disulfide 1-6)
hOTR [2]; read-out: Ki hOTR
  Ki: 1.5 ± 0.6 nM

## CC[C@H](C)[C@@H]1NC(=O)[C@H](Cc2ccc(O)cc2)NC(=O)CCSSC[C@@H](C(=O)N2CCC[C@H]2C(=O)N[C@@H](CCCNC(=O)[C@H](N)CCCCNC(=O)[C@H](N)CCCCNC(=O)CCCCC[N+]2=C(C=CC=CC=C3N(CC)c4ccc(S(=O)(=O)O)cc4C3(C)C)C(C)(C)c3cc(S(=O)(=O)[O-])ccc32)C(=O)NCC(N)=O)NC(=O)[C@H](CC(N)=O)NC(=O)[C@H](CCC(N)=O)NC1=O [Compound 5] ([Mpa]YIQNCP[Orn]([d(εLys)-d(εLys)-X3])G-NH2; disulfide 1-6)
[3]
  Concentration from which CREB phosphorylation was observed: ≥ 10 nM
hOTR-GFP in HEK293 cells [4]; hOTR-GFP HEK293 cells
  Concentration from which tracer accumulation and GFP internalization were observed: ≥ 10 nM
[5]
  Internalization in parent HEK293 cells: nor was it internalized into the cytoplasm
  pCREB induction in parent HEK293 cells: did not affect pCREB induction

## Cc1ccccc1N1CCN(S(=O)(=O)C[C@]23CC[C@H](C[C@@H]2NC(=O)[C@@H](N)CCS(C)(=O)=O)C3(C)C)CC1 [L368,899, reference compound]
hOTR [6]
  IC50: 26 nM
hOTR-GFP in HEK293 cells [4]; 10 µM, 30 min pretreatment
  Effect of antagonist pretreatment on tracer (11) uptake: completely prevented tracer (11) uptake

## CC[C@H](C)[C@@H]1NC(=O)[C@H](Cc2ccc(O)cc2)NC(=O)CCSSC[C@@H](C(=O)N2CCC[C@H]2C(=O)N[C@@H](CCCNC(=O)CCOCCOCCOCCOCCOCCNC(=O)CCCCC[N+]2=C(C=CC=CC=C3N(CC)c4ccc(S(=O)(=O)O)cc4C3(C)C)C(C)(C)c3cc(S(=O)(=O)[O-])ccc32)C(=O)NCC(N)=O)NC(=O)[C@H](CC(N)=O)NC(=O)[C@H](CCC(N)=O)NC1=O [Compound 3, d(Orn)^8OT‐[PEG5‐Cy5s]^8] ([Mpa]YIQNCP[Orn]([PEG5-X3])G-NH2; disulfide 1-6)
hOTR-GFP in HEK293 cells [4]
  hOTR-GFP internalization: significant hOTR‐GFP internalization
  Tracer retention after ICC protocols: washout after ICC protocols
  Tracer signal after prolonged stimulation: scarcely detectable

## CC[C@H](C)[C@@H]1NC(=O)[C@H](Cc2ccc(O)cc2)NC(=O)CCSSC[C@@H](C(=O)N2CCC[C@H]2C(=O)N[C@@H](CCCNC(=O)CCOCCOCCOCCOCCOCCNC(=O)[C@H](N)CCCCNC(=O)CCCCC[N+]2=C(C=CC=CC=C3N(CC)c4ccc(S(=O)(=O)O)cc4C3(C)C)C(C)(C)c3cc(S(=O)(=O)[O-])ccc32)C(=O)NCC(N)=O)NC(=O)[C@H](CC(N)=O)NC(=O)[C@H](CCC(N)=O)NC1=O [Compound 7, d(Orn)^8OT‐[PEG5‐k^ε‐Cy5s]^8] ([Mpa]YIQNCP[Orn]([PEG5-d(εLys)-X3])G-NH2; disulfide 1-6)
hOTR-GFP in HEK293 cells [4]
  hOTR-GFP internalization: significant hOTR‐GFP internalization
  Tracer retention after ICC protocols: remained present and detectable
  Tracer signal after prolonged stimulation: Signal intensity was increased

## CC[C@H](C)[C@@H]1NC(=O)[C@H](Cc2ccc(O)cc2)NC(=O)CCSSC[C@@H](C(=O)N2CCC[C@H]2C(=O)N[C@@H](CCCNC(=O)CCOCCOCCOCCOCCOCCNC(=O)[C@H](N)CCCCNC(=O)CCCCC[N+]2=C(C=CC=C3N(CC)c4ccc(S(=O)(=O)[O-])cc4C3(C)C)C(C)(C)c3cc(S(=O)(=O)O)ccc32)C(=O)NCC(N)=O)NC(=O)[C@H](CC(N)=O)NC(=O)[C@H](CCC(N)=O)NC1=O [Compound 8, d(Orn)^8OT‐[PEG5‐k^ε‐Cy3s]^8] ([Mpa]YIQNCP[Orn]([PEG5-d(εLys)-X1])G-NH2; disulfide 1-6)
hOTR-GFP in HEK293 cells [4]; post ICC, normalized to control
  Cy3s signal accumulation in hOTR-expressing cells: significant concentration‐dependent accumulation
[7]
  Fluorescent signals and internalization in hV1aR-containing cells: displayed fluorescent signals and internalization

## CC[C@H](C)[C@@H]1NC(=O)[C@H](Cc2ccc(O)cc2)NC(=O)CCSSC[C@@H](C(=O)N2CCC[C@H]2C(=O)N[C@@H](CCCNC(=O)CCOCCOCCOCCOCCOCCNC(=O)CCOCCOCCOCCOCCOCCNC(=O)[C@H](N)CCCCNC(=O)CCCCC[N+]2=C(C=CC=C3N(CC)c4ccc(S(=O)(=O)O)cc4C3(C)C)C(C)(C)c3cc(S(=O)(=O)[O-])ccc32)C(=O)NCC(N)=O)NC(=O)[C@H](CC(N)=O)NC(=O)[C@H](CCC(N)=O)NC1=O [Compound 9, d(Orn)^8OT‐[PEG5‐PEG5‐k^ε‐Cy3s]^8] ([Mpa]YIQNCP[Orn]([PEG5-PEG5-d(εLys)-X4])G-NH2; disulfide 1-6)
hOTR [2]; read-out: Ki hOTR
  Ki: 1.5 ± 0.5 nM

## CC[C@H](C)[C@@H]1NC(=O)CCSSC[C@@H](C(=O)N2CCC[C@H]2C(=O)N[C@@H](CCCNC(=O)[C@@H](CC(=O)O)NC(=O)CCOCCOCCOCCOCCOCCNC(=O)[C@H](N)CCCCNC(=O)CCCCC[N+]2=C(C=CC=C3N(CC)c4ccc(S(=O)(=O)[O-])cc4C3(C)C)C(C)(C)c3cc(S(=O)(=O)O)ccc32)C(=O)NCC(N)=O)NC(=O)[C@H](CCC(N)=O)NC(=O)[C@H](Cc2ccc(O)cc2)NC(=O)[C@H](CC(N)=O)NC1=O [Scrambled tracer (SCR), dCINYQCP(Orn)G‐[d‐PEG5‐k^ε‐Cy3s]^8] ([Mpa]INYQCP[Orn]([dD-PEG5-d(εLys)-X1])G-NH2; disulfide 1-6)
hOTR [2]; Ki hOTR
  Ki: > 10000 nM
[8]
  Tracer uptake in rat hippocampal neurons: not taken up by neurons
hV2R
  Ki: > 10000 nM
hV1bR
  Ki: > 10000 nM
hOTR-GFP in HEK293 cells [4]
  hOTR-GFP internalization: did not induce hOTR‐GFP internalization or accumulate in the cell cytoplasm
hV1aR
  Ki: > 10000 nM

From publication PMC12603982 (Angewandte Chemie (International Ed. in English), 2025)
